Experimental data from US20220323401A1, “FORMULATIONS OF CANNABINOIDS FOR THE TREATMENT OF ACNE” (priority 2017, published 2022).

Columns and labels:
[1] = Discoloration of CBD solutions and formulations; type: physicochemical; conditions: by end of day 1
From the text: The CBD2 material dissolved like the CBD1 therefore the CBD2 is CBD without the discoloration properties of CBD1.

[2] = Initial solubility studies of CBD in solvents; type: physicochemical
Experimental: First, the solubility of cannabidiol (CBD) was assessed. The powder looked granulated under the microscope. […] The conclusions from the solubility studies were that OA and IPA were very good solvents and it was surprising that IPA was so much better than ethanol.
Solubility studies: CBD dissolved at the 10% level in AE and barely 9.5% in IPM. Further exploration was not conducted due to the small amount of drug API available for non-GMP work. CBD is soluble greater than 10% but probably not in excess of 20%, as the time to dissolve additional CBD was taking considerably longer.

[3] = in ethanol, reported value; cited from earlier work
[4] = target: T1, human vanilloid receptor type 1 (VR1) (Homo sapiens, UniProt Q8NER1); conditions: HEK-hVR1 transfected cells; cited from earlier work
T1 construct: host or cells: HEK cells transfected with hVR1 (HEK-hVR1)
T1 sequence (Q8NER1 whole entry): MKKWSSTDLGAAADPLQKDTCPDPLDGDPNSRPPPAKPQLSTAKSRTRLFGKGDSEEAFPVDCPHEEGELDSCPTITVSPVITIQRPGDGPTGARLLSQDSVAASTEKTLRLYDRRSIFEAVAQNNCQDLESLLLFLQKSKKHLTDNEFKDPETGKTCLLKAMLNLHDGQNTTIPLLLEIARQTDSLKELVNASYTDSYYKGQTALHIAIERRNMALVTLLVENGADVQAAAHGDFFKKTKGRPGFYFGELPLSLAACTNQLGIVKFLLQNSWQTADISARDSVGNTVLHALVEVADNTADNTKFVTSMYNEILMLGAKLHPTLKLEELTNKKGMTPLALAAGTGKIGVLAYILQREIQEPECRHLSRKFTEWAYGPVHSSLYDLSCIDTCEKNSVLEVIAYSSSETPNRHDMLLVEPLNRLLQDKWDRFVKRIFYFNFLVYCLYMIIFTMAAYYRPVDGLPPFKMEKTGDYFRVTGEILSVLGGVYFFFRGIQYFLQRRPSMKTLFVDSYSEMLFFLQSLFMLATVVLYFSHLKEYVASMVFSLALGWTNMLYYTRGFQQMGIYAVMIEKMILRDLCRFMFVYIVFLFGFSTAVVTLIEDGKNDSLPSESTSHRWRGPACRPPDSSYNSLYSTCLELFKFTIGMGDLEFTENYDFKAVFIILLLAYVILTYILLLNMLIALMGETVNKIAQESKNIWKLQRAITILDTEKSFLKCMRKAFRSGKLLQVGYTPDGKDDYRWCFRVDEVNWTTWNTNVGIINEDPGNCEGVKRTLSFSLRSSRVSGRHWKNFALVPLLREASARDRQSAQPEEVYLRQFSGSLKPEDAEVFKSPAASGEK

anandamide = conditions: rat basophilic leukemia cells; cited from earlier work
sensitized guinea-pigs = conditions: 1 mg/kg i.v.; cited from earlier work
rats = conditions: 5 mg/kg i.v. once daily for 4 weeks; cited from earlier work
[5] = tested on: immortalized human sebocytes; conditions: cited from earlier work

Row | SMILES | discoloration of solution [1] | solubility of CBD ([2]; in arlamol E (AE), probably not in excess of 20%) | solubility of CBD ([2]; in isopropyl myristate (IPM)) | solubility of CBD ([2]; weight to weight, in ethanol) | solubility of CBD ([2]; weight to weight, in hexamethyldisiloxane (HDS)) | solubility of CBD ([2]; weight to weight, in isopropyl alcohol (IPA)) | solubility of CBD ([2]; weight to weight, in mineral oil) | solubility of CBD ([2]; weight to weight, in oleyl alcohol (OA), did not go higher) | solubility of CBD ([2]; weight to weight, in propylene glycol (PG)) | reported solubility of CBD [3] | stimulation of human VR1 [4] | effect on anandamide (anandamide) | ovalbumin-induced airway obstruction (sensitized guinea-pigs) | cardiac inflammation produced by doxorubicin (rats) | effects on sebocytes [5]
1 | C=C(C)[C@@H]1CCC(C)=C[C@H]1c1c(O)cc(CCCCC)cc1O [CBD1] | colored by the end of the day |  |  |  |  |  |  |  |  |  |  |  |  |  | 
2 | C=C(C)[C@@H]1CCC(C)=C[C@H]1c1c(O)cc(CCCCC)cc1O [CBD2] | None of the CBD2 solutions were colored at the end of day 1 |  |  |  |  |  |  |  |  |  |  |  |  |  | 
3 | C=C(C)C1CCC(C)=CC1c1c(O)cc(CCCCC)cc1O (stereo not shown) [CBD, 2-[3-methyl-6-(1-methylethenyl)-2-cyclohexen-1-yl]-5-pentyl-1,3-benzenediol] |  | greater than 10% | ~9.5% | 6-7% | 3-4% | greater than 14% | 3-4% | greater than 8% | 6-7% | 3.5% | maximum effect similar in efficacy to that of capsaicin | inhibit anandamide | attenuated ovalbumin-induced airway obstruction | attenuated cardiac inflammation produced by doxorubicin | lipostatic, anti-proliferative, and anti-inflammatory effects
